We go through 33 molecules from patent US8664257B2, “Oxygen-substituted 3-heteroaroylamino-propionic acid derivatives and their use as pharmaceuticals” (Sanofi, priority 2010, dated 2014).

In the first assay the target is T1, Recombinant human cathepsin A (Homo sapiens, UniProt P10619).
T1 construct: Recombinant human cathepsin A (residues 29-480, with a C-terminal 10-His tag); 10-His (C); purchased R&D Systems 1049-SE
T1 sequence (P10619 29-312 limits assumed): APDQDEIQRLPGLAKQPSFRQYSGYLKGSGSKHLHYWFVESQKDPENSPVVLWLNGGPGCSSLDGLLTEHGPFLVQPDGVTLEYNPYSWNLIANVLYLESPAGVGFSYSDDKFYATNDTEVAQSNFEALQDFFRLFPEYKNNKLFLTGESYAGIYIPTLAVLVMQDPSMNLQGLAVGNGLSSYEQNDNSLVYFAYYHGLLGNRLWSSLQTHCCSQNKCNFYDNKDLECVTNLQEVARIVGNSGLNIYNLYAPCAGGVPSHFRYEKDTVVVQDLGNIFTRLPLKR
T1 sequence (P10619 327-480 limits assumed): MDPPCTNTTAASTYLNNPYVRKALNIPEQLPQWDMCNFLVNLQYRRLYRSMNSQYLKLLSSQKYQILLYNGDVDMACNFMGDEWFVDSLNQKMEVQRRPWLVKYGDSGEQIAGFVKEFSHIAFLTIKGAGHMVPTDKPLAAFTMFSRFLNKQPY
As to the kind of experiment: Cathepsin A inhibitory activity. The format is biochemical. Particulars: pharmacological test "Cathepsin A inhibitory activity"; IC50 given as class A/B/C; read-out: Activity (2): Cathepsin A inhibitory activity, IC50 class. The method, boiled down: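 Human cathepsin A (res. 29-480, C-His10) pre-activated with cathepsin L (MES pH 6.0, DTT, 15 min, 37 °C; quenched with 10 μM E-64). Enzyme (833 ng/ml) preincubated 15 min RT with compound in MES pH 5.5/DTT, then 2 μM Bodipy FL-bradykinin for 15 min RT. Capillary electrophoresis product/substrate peak areas; IC50 from % inhibition.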
The term IC50 denotes the point on the concentration scale where inhibition reaches its midpoint. Turning to `COc1ccc([C@H](CC(=O)O)NC(=O)c2cc(O)n(-c3ccccc3)n2)cn1` [Example 144], the IC50 was 100 to 1000 nM. `O=C(O)C[C@H](NC(=O)c1cc(O)n(-c2ccc(F)cc2F)n1)c1ccc(Cl)cc1Cl` [Example 201]: the IC50 lay in the range of 100 to 1000 nM.

Still in this assay, the particulars now being: read-out: Activity (2): Cathepsin A inhibitory activity (IC50 class).
As for `CCOc1cc(C(=O)NC(CC(=O)O)c2ccc(F)cc2)nn1-c1ccccc1F` (centres unmarked) [Example 719], the IC50 is 100 to 1000 nM.

`CCOc1cc(C(=O)NC(CC(=O)O)c2cccc(C)c2C)nn1-c1ccccc1F` (centres unmarked) [Example 723]: the IC50 was less than 100 nM. In the case of `Cc1ccccc1[C@H](CC(=O)O)NC(=O)c1cc(O)n(-c2ccccc2S(C)(=O)=O)n1` [Example 607], the IC50 was in the range of 1000 to 30000 nM. In the case of `COc1cc(C(=O)N[C@@H](CC(=O)O)c2ccc(C#N)cc2)nn1-c1ccccc1F` [Example 668], the IC50 was in the range of 100 to 1000 nM. Still for that read-out and setting: with `CC(C)(C)[C@@H](O)COc1cc(C(=O)N[C@@H](CC(=O)O)c2cccc(Cl)c2Cl)nn1-c1ccccc1F` [Example 776, (S)-3-(2,3-Dichloro-phenyl)-3-{[1-(2-fluoro-phenyl)-5-((R)-2-hydroxy-3,3-dimethyl-butoxy)-1H-pyrazole-3-carbonyl]-amino}-propionic acid] the figure was less than 100 nM; with `Cc1ccccc1[C@H](CC(=O)O)NC(=O)c1cc(OC(C)C)n(-c2ccccc2F)n1` [Example 630], less than 100 nM; with `COc1ccc(C(CC(=O)O)NC(=O)c2cc(O)n(-c3ccccc3F)n2)c(C(F)(F)F)c1` (centres unmarked) [Example 552, 3-{[1-(2-Fluoro-phenyl)-5-hydroxy-1H-pyrazole-3-carbonyl]-amino}-3-(4-methoxy-2-trifluoromethyl-phenyl)-propionic acid], 100 to 1000 nM.

The same assay, now with this note: read-out: Activity (2): Cathepsin A inhibitory activity, IC50 class.
Take `O=C(O)CC(NC(=O)c1cc(O)n(-c2ccc(F)cc2)n1)c1cccc(C(F)(F)F)c1Cl` (centres unmarked) [Example 362]: the IC50 fell in the range of 100 to 1000 nM. The same measure, in the same setting: with `O=C(O)C[C@H](NC(=O)c1cc(O)n(-c2cccc(F)c2)n1)c1ccc(Cl)cc1` [Example 331] the figure was 100 to 1000 nM. Same read-out and setting: under `COc1ccc([C@H](CC(=O)O)NC(=O)c2cc(O)n(-c3ccc(Cl)cc3)n2)cn1` [Example 299] stands 1000 to 30000 nM; under `CC(C)[C@](C)(O)COc1cc(C(=O)NC2(CC(=O)O)CCCC2)nn1-c1ccccc1F` [Example 825, (1-{[1-(2-Fluoro-phenyl)-5-((S)-2-hydroxy-2,3-dimethyl-butoxy)-1H-pyrazole-3-carbonyl]-amino}-cyclopentyl)-acetic acid], 100 to 1000 nM. The same measure, in the same setting: under `Cc1ccccc1[C@H](CC(=O)O)NC(=O)c1cc(O)n(-c2ccc(Cl)cn2)n1` [Example 130] stands 1000 to 30000 nM; under `COc1cccc([C@H](CC(=O)O)NC(=O)c2cc(OCC(C)(O)C(C)C)n(-c3ccccc3F)n2)c1` (stereo partly drawn) [Example 802, (S)-3-{[1-(2-Fluoro-phenyl)-5-(2-hydroxy-2,3-dimethyl-butoxy)-1H-pyrazole-3-carbonyl]-amino}-3-(3-methoxy-phenyl)-propionic acid], less than 100 nM. With `Cc1ccc(C(CC(=O)O)NC(=O)c2cc(O)n(-c3cccc(F)c3)n2)c(C)c1` (centres unmarked) [Example 325], the IC50 was in the range of 100 to 1000 nM. On the same count and under the same terms, under `CC(C)[C@@](C)(O)COc1cc(C(=O)NC2(CC(=O)O)CCCC2)nn1-c1ccccc1F` [Example 824, (1-{[1-(2-Fluoro-phenyl)-5-((R)-2-hydroxy-2,3-dimethyl-butoxy)-1H-pyrazole-3-carbonyl]-amino}-cyclopentyl)-acetic acid] stands 100 to 1000 nM; under `CC(C)(C)C(O)COc1cc(C(=O)N[C@H](CC(=O)O)c2ccc(Cl)cc2)nn1-c1ccccc1F` (stereo partly drawn) [Example 815, (R)-3-(4-Chloro-phenyl)-3-{[1-(2-fluoro-phenyl)-5-(2-hydroxy-3,3-dimethyl-butoxy)-1H-pyrazole-3-carbonyl]-amino}-propionic acid], less than 100 nM. In the case of `Cc1ccccc1[C@@H](CC(=O)O)NC(=O)c1cc(O)n(-c2ccccc2)n1` [Example 83], the IC50 lay in the range of 1000 to 30000 nM.

Consider `Cc1ccc(C)c(-n2nc(C(=O)NC(CC(=O)O)c3ccc(Cl)c(Cl)c3)cc2O)c1` (centres unmarked) [Example 48], for which the IC50 lay in the range of 1000 to 30000 nM. `CC(C)(C)[C@](C)(O)COc1cc(C(=O)N[C@@H](CC(=O)O)c2ccc(F)cc2)nn1-c1ccccc1F` [Example 880, (S)-3-(4-Fluoro-phenyl)-3-{[1-(2-fluoro-phenyl)-5-((S)-2-hydroxy-2,3,3-trimethyl-butoxy)-1H-pyrazole-3-carbonyl]-amino}-propionic acid]: the IC50 was less than 100 nM.

Regarding `CC(C)(C)Oc1cccc(C(CC(=O)O)NC(=O)c2cc(O)n(-c3ccccc3)n2)c1` (centres unmarked) [Example 6], the IC50 lay within 1000 to 30000 nM. Turning to `COc1cccc(-n2nc(C(=O)N[C@@H](CC(=O)O)c3ccccc3C)cc2O)c1` [Example 94], the IC50 was 100 to 1000 nM. Still for that read-out and setting: with `CC(C)(C)[C@](C)(O)COc1cc(C(=O)N[C@@H](CC(=O)O)c2cccc(Cl)c2)nn1-c1ccccc1F` [Example 798, (S)-3-(3-Chloro-phenyl)-3-{[1-(2-fluoro-phenyl)-5-((S)-2-hydroxy-2,3,3-trimethyl-butoxy)-1H-pyrazole-3-carbonyl]-amino}-propionic acid] the figure was less than 100 nM.

Still in this assay, the particulars now being: recombinant human cathepsin A 833 ng/ml, Bodipy FL-labeled bradykinin 2 μM, pH 5.5; read-out: CATH-A IC50.
As to `COc1ccc(F)cc1C(CC(=O)O)NC(=O)c1cc(O)n(-c2ccc(F)cc2F)n1` (centres unmarked) [Example 453, 3-{[1-(2,4-Difluoro-phenyl)-5-hydroxy-1H-pyrazole-3-carbonyl]-amino}-3-(5-fluoro-2-methoxy-phenyl)-propionic acid], the IC50 was 249 nM. Consider `O=C(O)CC(NC(=O)c1cc(O)n(-c2ccccc2Cl)n1)c1ccc(N2CCOCC2)cc1` (centres unmarked) [Example 505, 3-{[1-(2-Chloro-phenyl)-5-hydroxy-1H-pyrazole-3-carbonyl]-amino}-3-(4-morpholin-4-yl-phenyl)-propionic acid], for which the IC50 is 29800 nM. Still for that read-out and setting: under `Cc1ccc([C@H](CC(=O)O)NC(=O)c2cc(O)n(-c3ccc(F)cc3F)n2)cc1` [Example 454, (S)-3-{[1-(2,4-Difluoro-phenyl)-5-hydroxy-1H-pyrazole-3-carbonyl]-amino}-3-p-tolyl-propionic acid] stands 186 nM. For `COc1ccc(C(CC(=O)O)NC(=O)c2cc(O)n(-c3ccccc3F)n2)c(C(F)(F)F)c1` (centres unmarked) [Example 552, 3-{[1-(2-Fluoro-phenyl)-5-hydroxy-1H-pyrazole-3-carbonyl]-amino}-3-(4-methoxy-2-trifluoromethyl-phenyl)-propionic acid], the IC50 was found to be 323 nM.

For the molecule `COc1cccc(F)c1C(CC(=O)O)NC(=O)c1cc(O)n(-c2ccccc2)n1` (centres unmarked) [Example 441, 3-(2-Fluoro-6-methoxy-phenyl)-3-[(5-hydroxy-1-phenyl-1H-pyrazole-3-carbonyl)-amino]-propionic acid], the IC50 came out at 513 nM.

The same assay, now with this note: recombinant human cathepsin A; read-out: Activity (2): Cathepsin A inhibitory activity, IC50 class.
Take `COc1ccc(-c2ccc(C(CC(=O)O)NC(=O)c3cc(O)n(-c4ccccc4F)n3)cc2)cn1` (centres unmarked) [Example 531]: the IC50 is 100 to 1000 nM.

Take `O=C(O)C[C@H](NC(=O)c1cc(O)n(-c2cccc(Cl)c2)n1)c1ccccc1F` [Example 422]: the IC50 lay within 100 to 1000 nM. On the same count and under the same terms, with `COc1ccc(F)cc1C(CC(=O)O)NC(=O)c1cc(O)n(-c2ccc(F)cc2F)n1` (centres unmarked) [Example 453, 3-{[1-(2,4-Difluoro-phenyl)-5-hydroxy-1H-pyrazole-3-carbonyl]-amino}-3-(5-fluoro-2-methoxy-phenyl)-propionic acid] the figure was 100 to 1000 nM. On to `O=C(O)CC(NC(=O)c1cc(O)n(-c2ccccc2Cl)n1)c1ccc(N2CCOCC2)cc1` (centres unmarked) [Example 505, 3-{[1-(2-Chloro-phenyl)-5-hydroxy-1H-pyrazole-3-carbonyl]-amino}-3-(4-morpholin-4-yl-phenyl)-propionic acid], for which the IC50 is 1000 to 30000 nM. Take `Cc1ccc(F)cc1C(CC(=O)O)NC(=O)c1cc(O)n(-c2cccc(F)c2)n1` (centres unmarked) [Example 487]: the IC50 lay within 100 to 1000 nM.

As for `Cc1ccc(C)c(C(CC(=O)O)NC(=O)c2cc(O)n(-c3ccccc3F)n2)c1` (centres unmarked) [Example 406], the IC50 is 100 to 1000 nM.

As for `Cc1ccc([C@H](CC(=O)O)NC(=O)c2cc(O)n(-c3ccc(F)cc3F)n2)cc1` [Example 454, (S)-3-{[1-(2,4-Difluoro-phenyl)-5-hydroxy-1H-pyrazole-3-carbonyl]-amino}-3-p-tolyl-propionic acid], the half-inhibitory concentration (IC50) lay within 100 to 1000 nM.

For the molecule `Cc1c(F)cccc1C(CC(=O)O)NC(=O)c1cc(O)n(-c2cccc(F)c2)n1` (centres unmarked) [Example 482], the concentration for half-maximal inhibition (IC50) was 100 to 1000 nM. For the molecule `COc1cccc(F)c1C(CC(=O)O)NC(=O)c1cc(O)n(-c2ccccc2)n1` (centres unmarked) [Example 441, 3-(2-Fluoro-6-methoxy-phenyl)-3-[(5-hydroxy-1-phenyl-1H-pyrazole-3-carbonyl)-amino]-propionic acid], the half-inhibitory concentration (IC50) was 100 to 1000 nM.
